The values that follow come from patent publication US9808477B2 (Macau University of Science and Technology, priority 2015, dated 2017).

In general, IC50 refers to the concentration that gives 50% inhibition. For orientation: viability means a read-out of living cells in per cent, often relative to untreated cells.

Structures are written as SMILES. Some results are limits rather than exact numbers.

Data set [1] relates to A2780/T cells. The data set is described as follows: Colony formation assay. The note with it: 12 days. Format: cell-based, human. The source says:
The A2780/T cells were trypsinized and plated in fresh culture medium at a density of 600 cells/9.6 cm^2 plate. Subsequently, the cells were fixed with 70% ethanol and stained with crystal violet (0.5% in ethanol). The plates were rinsed with phosphate buffered saline (PBS), and the colony numbers were counted using the software of Quantity one-Colony counting.

Data set [2] concerns P-gp, p53, AKT/ERK, Nrf2 in A2780/T cells. The data set is described as follows: Western blot analysis. Format: cell-based, human. The method, then:
The total cellular samples were harvested and rinsed twice with ice-cold PBS buffer. Cell extracts were lysed in RIPA buffer (50 mM Tris (pH 7.4), 150 mM NaCl, 1% Triton X-100, 1% sodium deoxycholate, 0.1% SDS, sodium orthovanadate, sodium fluoride and EDTA) containing protease inhibitor cocktails (Roche Life Science, USA). Protein concentration was determined using the BCA protein assay kit. Equal amounts of cell lysates were resolved by SDS-PAGE and subsequently electrophoretically transferred onto PVDF membranes (Millipore, Darmstadt, Germany). After blocking in tris-buffered saline containing 0.1% of Tween20 (TBST) with 5% (w/v) skim milk (Nestle Carnation, New Zealand) for 2 h at room temperature, the membranes were incubated with primary and secondary antibodies and subsequently visualized with an enhanced chemiluminescence detection kit (Thermo Scientific™ SuperSignal™ West Pico Chemiluminescent Substrate, USA). β-Actin was used as the loading control for the experimental data analysis.

Data set [3] deals with prostate cancer cell lines. Particulars: several prostate cancer cell lines; read-out: IC50, growth inhibition; cited from earlier work.
In data set [4] the test system is A2780 cells. The data set can be described thus: Intracellular accumulation of doxorubicin and Flutax-2. The format is cell-based, human. Particulars: parental A2780, nobiletin 4.5 μM. How it is done: A2780 or A2780/T cells (5×10^6) were cultured on the cover glass (ISO LAB 20×20 mm). […] After treatment, cells were fixed in 4 wt % formaldehyde (Sigma-Aldrich). Nuclear DNA was stained with 1 μg/mL blue-fluorescent DAPI (1 mg/mL in H2O stock solution; Invitrogen D1306). One drop of fluorescent preservation solution (fluorsave reagent, CALBIOCHEM) was added before observation. Imaging was carried out for comparing the intracellular accumulation of DOX and flutax-2 with a Fluorescence Microscopy (Leica DM2500, Leica, Germany).
Cells were detached, re-suspended in 500 μl of PBS after washed twice with cold PBS, and analyzed by flow cytometry (BD FACS Aria, BD Biosciences, San Jose, Calif.). Excitation and emission wavelengths (nm) used for DOX and flutax-2 were as follows: 480 to 585; and 496 to 524.

Data set [5] has as its system A2780/T cells (PTX-resistant, ABCB1-overexpressing ovarian cancer cells). The data set can be described thus: cells. The note with it: Homo sapiens, A2780, 48 h, A2780/T, 48 h, SRB, drug alone (no nobiletin); read-out: IC50 ± SD. Format: cell-based, human. The method, then:
(§1) Sulphorhodamine B (SRB) assays were used for cell density determination, based on sensitive measure of total cellular protein, which perform similarly compared with other proliferation assays such as MTT assay. Briefly, cells were seeded into flat bottomed 96-well plates at an initial density of 7.5×10^3 per well before treatment. […] After removing the medium, cells were fixed in 10% trichloroacetic acid for 1 h at 4° C. and then washed with water five times. 0.4% SRB dissolved in 1% v/v acetic acid was added and incubated […] for staining. The cells were quickly washed with 1% acetic acid and left to dry overnight. The protein bound SRB was solubilized by adding 200 μl 10 mM Tris buffer per well and was measured at wavelengths 490 nm using a plate reader (Spectra MAX 250; Molecular Devices, Sunnyvale, Calif.). The optical density of SRB in each well is directly proportional to the cell number.

The nature of data set [6]: in vitro. Format: cell-based. Particulars: human. How it is done: as §1
Data set [7] concerns MDR1 mRNA in A2780/T cells. The data set can be described thus: RT-PCR analysis of MDR1 mRNA. Format: cell-based, human. Particulars: nobiletin at concentrations used in reversal assays, 48 h. The method, then: RT-PCR was performed to evaluate MDR1 mRNA expression. mRNA from cell lysates were purified by binding to poly(dT) magnetic beads (Life technologies) and reverse transcribed by using SuperScript II (Life technologies). Standard quantitative RT-PCR was performed in duplicates at least two to three times by using SYBR Green (Molecular Probes) protocols on the ViiA™ 7 Real-Time PCR System (Life technologies). The primer sequences: 5′-[…]-3′ (SEQ ID NO:1) and 3′-[…]-5′ (SEQ ID NO:2) for MDR1, and 5′-[…]-3′ (SEQ ID NO:3) and 3′-[…]-[…]-5′ (SEQ ID NO:4) for control gene eukaryotic translation initiation factor (TIF). RT-PCR data were normalized by measuring average cycle threshold (Ct) ratios between candidate genes and control gene TIF.

For data set [8], the system named is ABCB1 transfected cell line LLC-GA5-COL300. Particulars: nobiletin 20 μM; cited from earlier work.
Data set [9] deals with A2780/T cells. The data set can be described thus: Combination index, Chou-Talalay method (CalcuSyn). The format is cell-based, human.
The target of data set [10] is T1, recombinant human ABCB1 membranes (P-gp ATPase) (Homo sapiens, UniProt P08183).
T1 construct: purchased Promega
T1 sequence (P08183 whole entry): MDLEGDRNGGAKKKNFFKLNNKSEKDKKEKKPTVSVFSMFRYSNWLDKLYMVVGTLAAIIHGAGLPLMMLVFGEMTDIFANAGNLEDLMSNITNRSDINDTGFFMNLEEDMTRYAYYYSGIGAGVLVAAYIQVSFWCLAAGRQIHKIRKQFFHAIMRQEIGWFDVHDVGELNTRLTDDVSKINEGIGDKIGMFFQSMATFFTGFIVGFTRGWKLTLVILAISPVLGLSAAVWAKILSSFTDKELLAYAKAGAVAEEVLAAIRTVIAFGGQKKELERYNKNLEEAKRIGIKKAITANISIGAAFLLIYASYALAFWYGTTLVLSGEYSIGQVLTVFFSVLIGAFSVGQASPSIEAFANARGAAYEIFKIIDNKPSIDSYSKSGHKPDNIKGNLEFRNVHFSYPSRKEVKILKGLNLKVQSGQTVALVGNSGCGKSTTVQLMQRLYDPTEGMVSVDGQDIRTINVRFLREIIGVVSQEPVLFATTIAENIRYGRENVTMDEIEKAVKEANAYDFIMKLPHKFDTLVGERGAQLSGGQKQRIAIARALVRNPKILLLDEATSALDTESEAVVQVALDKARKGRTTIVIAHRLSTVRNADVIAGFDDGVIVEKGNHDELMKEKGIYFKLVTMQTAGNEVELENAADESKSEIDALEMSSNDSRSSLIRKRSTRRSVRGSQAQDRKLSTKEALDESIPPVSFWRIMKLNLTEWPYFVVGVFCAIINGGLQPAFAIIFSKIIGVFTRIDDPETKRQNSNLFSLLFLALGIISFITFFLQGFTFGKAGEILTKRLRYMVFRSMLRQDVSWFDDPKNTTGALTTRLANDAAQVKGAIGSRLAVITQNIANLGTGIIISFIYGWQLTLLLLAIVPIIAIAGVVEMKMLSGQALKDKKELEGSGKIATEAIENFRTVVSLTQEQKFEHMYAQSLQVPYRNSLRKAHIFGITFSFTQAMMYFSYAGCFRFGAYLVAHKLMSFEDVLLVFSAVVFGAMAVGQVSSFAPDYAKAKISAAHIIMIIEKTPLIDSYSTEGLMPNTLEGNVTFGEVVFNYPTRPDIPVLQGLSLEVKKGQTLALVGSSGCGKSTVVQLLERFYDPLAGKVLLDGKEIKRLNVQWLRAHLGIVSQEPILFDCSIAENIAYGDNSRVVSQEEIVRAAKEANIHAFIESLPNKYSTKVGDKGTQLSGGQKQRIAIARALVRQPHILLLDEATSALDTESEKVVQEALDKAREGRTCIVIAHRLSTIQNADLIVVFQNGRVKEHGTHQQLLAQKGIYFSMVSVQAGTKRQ
The data set is described as follows: ABCB1 ATPase activity assay (PgpGlo). The format is biochemical. The method, then: Sodium orthovanadate (Na3VO4) was used as an ABCB1 ATPase inhibitor. […] Luminescence was initiated by ATP detection buffer. The plate (white opaque 96-well, corning, USA) was further incubated at room temperature for […] to develop luminescent signal, and was read with luminometer (infinite M200 PRO, TECAN, Switzerland).

The subject of data set [11] is A2780/T cells. The data set is described as follows: Cell cycle analysis (PI, flow cytometry). The format is cell-based, human. The method, then: A2780/T cells were harvested 24 hours, 48 hours, or 72 hours after treatment and washed twice with ice-cold PBS. The cells were fixed and permeabilized with 70% ice-cold ethanol overnight at 4° C. or 2 h at −20° C. After one additional wash in PBS, cells were stained with a staining solution containing propidium iodide (PI) ([…]) and RNase A (250 μg/ml) for 30 min at room temperature. They were then pelleted, washed and suspended in PBS to a final concentration of 1×10^6/ml and analyzed by flow cytometry BD FACS Aria (BD Biosciences, San Jose, Calif.).
On the technique in general: Flow cytometry measures light scatter and fluorescence of single cells or particles in a stream.

The mark [12] stands for this setting: nobiletin 9 μM in combination with 0.94 μM PTX.

`COc1ccc(-c2cc(=O)c3c(OC)c(OC)c(OC)c(OC)c3o2)cc1OC` [nobiletin]: in data set [1] (9 μM nobiletin alone or 0.94 μM PTX alone), the “inhibition of colony formation, single agent” value is “no inhibition”. In addition, the “inhibition of colony formation, combination” value in data set [1] (different concentrations of nobiletin with 0.94 μM PTX) was “Complete inhibition”. Also, the “phosphorylated AKT/ERK level” value in [2] (50 μM nobiletin) is “significant decrease”. Also, the “phosphorylated AKT and ERK” value in [2] (PTX and nobiletin, 48 h) is listed as “significant inhibitory effect”. The p53 level entry in data set [2] (PTX in combination with nobiletin) is on record as “accumulation of p53”. Moreover, in [2] (nobiletin alone at reversal concentrations), the “expression of total and phosphorylated AKT and ERK” value was “no effect”. The “protein level of ABCB1” value in data set [2] (nobiletin at concentrations used in reversal assays, 48 h) is listed as “did not significantly alter”. The “protein level of Nrf2” value in data set [2] (nobiletin in combination with 0.94 μM PTX, dose-dependent) is on record as “reduced”. The IC50 is ~100 µM in data set [3], 31.6 µM in data set [5] and 7.17 µM in [10]. In addition, the “DOX and Flutax-2 levels” value in data set [4] is given as “no effect”. In data set [6], the viability at 9 µM is > 90%. Also, the “expression of MDR1 mRNA” value in data set [7] is given as “did not significantly alter”. Moreover, the “increase of uptake of [3H] vinblastine” value in [8] is listed as 1.8 fold. In addition, the EC50 in data set [9] (Homo sapiens, A2780, read-out: Dose N at Fa = 0.5 (ED50), CalcuSyn simulation, A2780/T, nobiletin dose, alone or in the combination) was 36 µM; in [10] it was 5.88 µM. For the same molecule, in [9] (combination with 0.286 μM nobiletin, A2780/T), the “decrease of the ED50 dose of PTX” value is 200 fold. For the same molecule, the “maximal stimulation of ATPase activity relative to basal activity” value in [10] (human, 40 min) is on record as 3 fold. The “effect on the cell cycle” value in [11] (nobiletin 9 μM alone) is recorded as “no effect”. The G1 phase cells in data set [11] (setting [12]) is 9.6%. Besides, the G2 phase cells in [11] (setting [12]) was found to be 75.77%.
